According to paper PMC8388802, “Study on the Structure-Activity Relationship of an Antimicrobial Peptide, Brevinin-2GUb, from the Skin Secretion of Hylarana guentheri” (Antibiotics, 2021):
Converted amounts (≈) assume the structure as drawn. Where a SMILES comes first, the peptide text is derived from it. Where no end group is shown, it is not given here.

How the values were obtained:
S. aureus (ATCC 6538) = format: cell-based, Staphylococcus aureus
Protocol: (§1) The method of antimicrobial assay is based on the Methods for Dilution Antimicrobial Susceptibility Tests for Bacteria that Grow Aerobically from the Clinical and Laboratory Standards Institute (CLSI).The antimicrobial activities of peptides were evaluated against Gram-positive bacteria S. aureus (ATCC 6538), MRSA (NCTC 12493), E. faecalis (NCTC 12493), Gram-negative bacteria E. coli (ATCC CRM 8739), K. pneumoniae (ATCC 43816), P. aeruginosa (ATCC CRM 9027), yeast C. albicans (ATCC CRM 10231) and clinical isolates MRSA (B042 V2E1 A), E. coli (ATCC BAA-2340), K. pneumoniae (ATCC BAA-1705), P. aeruginosa (B004 V2S2 B).
(§2) At the first stage of the assay, 20 μL bacteria were cultured in 100 mL Mueller Hinton Broth (MHB) or Yeast Extract–Peptone–Dextrose broth (YPD-B), respectively, and was incubated overnight. Then, microorganisms were subcultured in 20 mL fresh MHB or YPD-B to achieve cultures in the logarithmic phase (1 × 10^8 CFU/mL), which can be verified by optical density (OD) (The OD of Gram-positive bacteria is 0.23, OD of Gram-negative bacteria is 0.4, and OD of yeast is 0.15), and viable cell counts. Then, the medium was used to dilute the cultures to specific cell densities (Gram-negative and Gram-positive bacteria: 5 × 10^5 CFU/mL; yeast: 1 × 10^6 CFU/mL), which were the final concentrations of bacterial suspensions used in the assay. The peptides were dissolved in DMSO to reach a final concentration of 512 µM. A series of two-fold dilutions ranging from 512 µM to 1 µM were dosed in the 96-well plates.
(§3) Antimicrobial assays were conducted in 96-well plates, which were divided into five groups, including a negative control group (PBS), a positive control group (20 μg/mL norfloxacin for bacteria and 10 μg/mL amphotericin B for yeast), vehicle control (1% DMSO), blank control (MHB or YPD-B), and a peptide group. Each microorganism had five repetitions, and each well contained 1 µL corresponding solution and 99 µL culture. After incubation at 37 °C overnight, the absorbance of each well was tested by a microplate reader (EL808, Biolise BioTek Winooski, Minneapolis, USA) under a 550 nm wavelength. The MIC is the lowest concentration at which no bacterial growth can be observed.
(§4) The next day, 10 µL of every clear well was taken out to be cultured on a Mueller Hinton Agar (MHA) plate and incubated at 37 °C for 16–20 h. The MBC is the lowest concentration without any bacterial colonies, which means at this concentration, the peptide reduces the viability of the pathogen by more than 99.9%.

[1] = tested on: C. albicans (ATCC CRM 10231); format: cell-based, Candida albicans
Protocol: as §1, §2, §3, §4

E. faecalis (NCTC 12493) = format: cell-based, Enterococcus faecalis
Protocol: as §1, §2, §3, §4

MRSA (B042 V2E1 A) = format: cell-based, Methicillin-resistant Staphylococcus aureus
Protocol: as §1, §2, §3, §4

MRSA (NCTC 12493) = format: cell-based, Methicillin-resistant Staphylococcus aureus
Protocol: as §1, §2, §3, §4

E. coli (ATCC BAA-2340) = format: cell-based, Escherichia coli
Protocol: as §1, §2, §3, §4

E. coli (ATCC CRM 8739) = format: cell-based, Escherichia coli
Protocol: as §1, §2, §3, §4

[2] = tested on: P. aeruginosa (ATCC CRM 9027); format: cell-based, Pseudomonas aeruginosa
Protocol: as §1, §2, §3, §4

[3] = tested on: P. aeruginosa (B004 V2S2 B); format: cell-based, Pseudomonas aeruginosa
Protocol: as §1, §2, §3, §4

[4] = tested on: K. pneumoniae (ATCC 43816); format: cell-based, Klebsiella pneumoniae
Protocol: as §1, §2, §3, §4

[5] = tested on: K. pneumoniae (ATCC BAA-1705); format: cell-based, Klebsiella pneumoniae
Protocol: as §1, §2, §3, §4

[6] = tested on: S. aureus (ATCC 6538) biofilm; format: cell-based, Staphylococcus aureus; settings: ATCC 6538, 24 h
Protocol: (§5) The anti-biofilm activities of the peptides against S. aureus (ATCC 6538), MRSA (NCTC 12493), E. faecalis (NCTC 12493), E. coli (ATCC CRM 8739), K. pneumoniae (ATCC 43816), and P. aeruginosa (ATCC CRM 9027) were evaluated.
(§6) The bacteria were inoculated in a different medium (Gram-positive bacteria were in TSB and Gram-negative bacteria were in LB) overnight, and the subculture was conducted in the same medium. When the bacteria reached a specific density, 100 µL of the dilution was added to each well of the 96-well microplate. Then 1 µL of peptide at a series of concentrations, the same concentration in the antimicrobial assay, were added into the well together with the bacteria. The plates were put into a moist shaking incubator with a speed of 200 rpm, and the temperature was set at 37 ℃. After a 24-h incubation, the liquid in the wells was aspirated, and each was washed twice by 100 µL PBS. One hundred µL of methanol were added into each well to stabilise the biofilm. After air-drying, 100 µL crystal violet was used to dye the biofilm, and they were dissolved in the 100 µL glacial acidic acid after drying. The solutions were transferred to a new microplate, and the absorbance of each well was tested by a microplate reader (EL808, Biolise BioTek Winooski, Minneapolis, MN, USA) at 595 nm wavelength. MBIC was the minimum concentration of the peptide showing no biofilm formation.
(§7) The bacteria were inoculated in a different medium (Gram-positive bacteria were in TSB and Gram-negative bacteria were in LB) overnight, and the subculture was conducted in the same medium. When the bacteria reached a specific density, 100 µL of the dilution was added to each well of the 96-well microplates. The plates were put into a moist shaking incubator with a speed of 200 rpm and the temperature was 37 ℃. After a 24 h incubation, the liquid in the wells was aspirated and they were washed twice by 100 µL PBS of each well. The peptides with the same concentrations were diluted in the corresponding medium and 100 µL were added into each well. After a 24-h incubation, the liquid in the wells was aspirated and they were washed twice by 100 µL PBS. One hundred µL of methanol were added into the wells to stabilise the biofilms. After being air-dried, 100 µL crystal violet was used to dye the biofilm, and they were dissolved in the 100 µL glacial acidic acid after drying. The solutions were transferred to a new microplate, and the absorbance of each well was tested by a microplate reader (EL808, Biolise BioTek Winooski, Minneapolis, USA) at 595 nm wavelength.

[7] = tested on: E. coli (ATCC CRM 8739) biofilm; format: cell-based, Escherichia coli; settings: ATCC CRM 8739, 24 h
Protocol: as §5, §6, §7

[8] = tested on: K. pneumoniae (ATCC 43816) biofilm; format: cell-based, Klebsiella pneumoniae; settings: ATCC 43816, 24 h
Protocol: as §5, §6, §7

[9] = tested on: P. aeruginosa (ATCC CRM 9027) biofilm; format: cell-based, Pseudomonas aeruginosa; settings: ATCC CRM 9027, 24 h
Protocol: as §5, §6, §7

[10] = tested on: MRSA (NCTC 12493) biofilm; format: cell-based, Methicillin-resistant Staphylococcus aureus; settings: NCTC 12493, 24 h
Protocol: as §5, §6
The bacteria were inoculated in a different medium (Gram-positive bacteria were in TSB and Gram-negative bacteria were in LB) overnight, and the subculture was conducted in the same medium. When the bacteria reached a specific density, 100 µL of the dilution was added to each well of the 96-well microplates. The plates were put into a moist shaking incubator with a speed of 200 rpm and the temperature was 37 ℃. […] The solutions were transferred to a new microplate, and the absorbance of each well was tested by a microplate reader (EL808, Biolise BioTek Winooski, Minneapolis, USA) at 595 nm wavelength.

[11] = tested on: E. faecalis (NCTC 12493) biofilm; format: cell-based, Enterococcus faecalis; settings: NCTC 12493, 24 h
Protocol: as §5, §6, §7

[12] = tested on: wax moth (Galleria mellonella); assay: Toxicity of peptides to waxworms; format: in vivo; settings: uninfected waxworms, when the concentration reached 15 mg/kg
[13] = tested on: enteroaggregative E. coli; settings: cited from earlier work
Description: Due to the influence of physiological factors, there may be some difference between the antimicrobial activity in vitro and in vivo [41]. Consistent with the haemolysis assay and cytotoxicity assay results, Brevinin-2GUb is much harmful to the wax moth than tB2U-K and tB2U-6K. […] In our study, with the increase of the number of net charges, the survival rate of E. coli-infected wax moth is enhanced and the ability o ...

## CC[C@H](C)[C@H](NC(=O)[C@@H](NC(=O)CN)C(C)C)C(=O)N[C@H](C(=O)N[C@@H](CC(=O)O)C(=O)N[C@H](C(=O)N[C@@H](CC(C)C)C(=O)N[C@@H](CCCCN)C(=O)NCC(=O)N[C@@H](C)C(=O)N[C@@H](C)C(=O)N[C@@H](CCCCN)C(=O)N[C@H](C(=O)N[C@H](C(=O)N[C@@H](C)C(=O)N[C@@H](C)C(=O)N[C@@H](CCC(=O)O)C(=O)N[C@@H](CC(C)C)C(=O)N[C@@H](CC(C)C)C(=O)N[C@@H](CCCNC(=N)N)C(=O)N[C@@H](CCCCN)C(=O)N[C@@H](C)C(=O)N[C@@H](Cc1c[nH]cn1)C(=O)N[C@H]1CSSC[C@@H](C(=O)O)NC(=O)[C@H](CO)NC(=O)[C@H](CC(N)=O)NC(=O)[C@H]([C@@H](C)O)NC(=O)[C@H](CC(C)C)NC(=O)[C@H](CCCCN)NC1=O)C(C)C)[C@@H](C)O)[C@@H](C)O)[C@@H](C)CC [Brevinin-2GUb] (HELM PEPTIDE1{G.V.I.I.D.T.L.K.G.A.A.K.T.V.A.A.E.L.L.R.K.A.H.C.K.L.T.N.S.C}$PEPTIDE1,PEPTIDE1,24:R3-30:R3$$$V2.0)
S. aureus (ATCC 6538)
  MBC: 32 µM (≈ 100 µg/mL)
  MIC: 32 µM (≈ 100 µg/mL)
[1]
  MBC: >512 µM
  MIC: >512 µM
E. faecalis (NCTC 12493)
  MBC: >512 µM
  MIC: >512 µM
MRSA (B042 V2E1 A)
  MBC: >512 µM
  MIC: >512 µM
MRSA (NCTC 12493)
  MBC: >512 µM
  MIC: >512 µM
E. coli (ATCC BAA-2340)
  MBC: 32 µM (≈ 100 µg/mL)
  MIC: 32 µM (≈ 100 µg/mL)
E. coli (ATCC CRM 8739)
  MBC: 16 µM (≈ 50 µg/mL)
  MIC: 16 µM (≈ 50 µg/mL)
[2]
  MBC: 512 µM (≈ 1600 µg/mL)
  MIC: 128 µM (≈ 400 µg/mL)
[3]
  MBC: >512 µM
  MIC: >512 µM
[4]
  MBC: 128 µM (≈ 400 µg/mL)
  MIC: 128 µM (≈ 400 µg/mL)
[5]
  MBC: 512 µM (≈ 1600 µg/mL)
  MIC: 512 µM (≈ 1600 µg/mL)
[6]
  MBEC: > 512 µM
  MBIC: 256 µM
[7]
  MBEC: > 512 µM
  MBIC: 128 µM
[8]
  MBEC: >512 µM
  MBIC: >512 µM
[9]
  MBEC: >512 µM
  MBIC: >512 µM
[10]
  MBIC: 256 µM
[11]
  MBEC: >512 µM
  MBIC: >512 µM
[12]
  toxicity to waxworms: modest toxicity

## Indolicidin (ILPWKWPWWPWRR; ends and bridges not checked; UniProt P33046 131-143, looked up) [antimicrobial peptide of a previous study in Galleria mellonella]
[13]
  survival rate of Galleria mellonella infected by the enteroaggregative E. coli: up to 95%
